In patent US10519177B2, “Heterocyclic compounds and uses thereof” (Plexxikon Inc., priority 2013, dated 2019) one finds IC50 data, which are given here for 24 compounds.

SMILES strings stand for the structures.

In one assay the target is BRD4-BD12 (1-477) (Homo sapiens (Human), UniProt O60885). The assay is described as follows: Alphascreen binding assay BRD4-BD12. The settings on record: BRD4(1 2) H4; read-out: Biochemical activity (IC50 μM) BRD4(1 2) H4. The essentials:
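In this competition format, compounds displace a biotinylated tetra-acetyl H4 peptide from E. coli-expressed human BRD4 bromodomain constructs captured on nickel chelate beads. The reaction runs at pH 7.5 with 2 mM DTT and detergent for 1 h at room temperature before a 30 min bead step.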
For orientation: In Alpha technology, singlet oxygen from a donor bead excites a nearby acceptor bead.

For a further assay, the system named is MV-4-11 cells. Put plainly: Oncology cell growth assay MV-4-11 (CellTiter Glo). Format: cell-based. The settings on record: Homo sapiens, MV4-11, 72 h; read-out: Cell activity (IC50 μM) MV-4-11 3d-Growth. The essentials: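 Growth read by CellTiter Glo luminescence after 72 h compound treatment of MLL-AF4-bearing MV-4-11 cells (3000/well). Titration: 8 points, 1:3 steps, maximum 10 μM, 0.2% DMSO final. Data normalized to DMSO wells, four-parameter fit gives pIC50.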
For orientation: In ATP-based viability assays light output follows the ATP content of the culture.

Another assay deals with bromodomain. The assay is described as follows: at least one of the bromodomain cell assays of Example 57. The settings on record: at least one of the bromodomain cell assays described in Example 57; read-out: IC50 in at least one of the bromodomain cell assays. Type of assay: cell-based.

The IC50 is the concentration needed to halve the response being measured. As to `COC(=O)c1ccc(-c2cn(CC3(F)CCC(F)(F)CC3)c3cc(-c4c(C)noc4C)cnc23)cc1F` [P-0387, methyl 4-[6-(3,5-dimethylisoxazol-4-yl)-1-[(1,4,4-trifluorocyclohexyl)methyl]pyrrolo[3,2-b]pyridin-3-yl]-2-fluoro-benzoate], the values for the IC50 on BRD4-BD12 (1-477), in the assay with MV-4-11 cells and in the assay on bromodomain were less than 1 µM, less than 1 µM and less than 10000 nM, respectively.
As to `Cc1noc(C)c1-c1cnc2c(-c3cccnc3)cn(CC3CCC(F)(F)CC3)c2c1` [P-0388, 4-[1-[(4,4-difluorocyclohexyl)methyl]-3-(3-pyridyl)pyrrolo[3,2-b]pyridin-6-yl]-3,5-dimethyl-isoxazole], the IC50 at BRD4-BD12 (1-477) was less than 1 µM; in the assay on MV-4-11 cells, less than 1 µM; in the assay with bromodomain, less than 10000 nM.
Regarding `Cc1noc(C)c1-c1cnc2c(-c3ccc(C(N)=O)cc3)cn(CC3CCC(F)(F)CC3)c2c1` [P-0389, 4-[1-[(4,4-difluorocyclohexyl)methyl]-6-(3,5-dimethylisoxazol-4-yl)pyrrolo[3,2-b]pyridin-3-yl]benzamide], the IC50 at BRD4-BD12 (1-477) was less than 1 µM; with MV-4-11 cells, less than 1 µM; in the assay on bromodomain, less than 10000 nM.
Consider `COc1ccc(-c2cn(CC3CCC(F)(F)CC3)c3cc(-c4c(C)noc4C)cnc23)cn1` [P-0390, 4-[1-[(4,4-difluorocyclohexyl)methyl]-3-(6-methoxy-3-pyridyl)pyrrolo[3,2-b]pyridin-6-yl]-3,5-dimethyl-isoxazole], for which the IC50 on BRD4-BD12 (1-477) was less than 1 µM; in the assay on MV-4-11 cells, less than 1 µM; in the assay on bromodomain, less than 10000 nM.
On to `COc1ncc(-c2cn(CC3CCC(F)(F)CC3)c3cc(-c4c(C)noc4C)cnc23)cn1` [P-0391, 4-[1-[(4,4-difluorocyclohexyl)methyl]-3-(2-methoxypyrimidin-5-yl)pyrrolo[3,2-b]pyridin-6-yl]-3,5-dimethyl-isoxazole], for which the IC50 at BRD4-BD12 (1-477) was less than 1 µM; in the assay on MV-4-11 cells, less than 1 µM; in the assay with bromodomain, less than 10000 nM.
On to `Cc1noc(C)c1-c1cnc2c(-c3cn[nH]c3)cn(CC3CCC(F)(F)CC3)c2c1` [P-0392, 4-[1-[(4,4-difluorocyclohexyl)methyl]-3-(1H-pyrazol-4-yl)pyrrolo[3,2-b]pyridin-6-yl]-3,5-dimethyl-isoxazole], for which the IC50 was less than 1 µM at BRD4-BD12 (1-477), less than 1 µM with MV-4-11 cells and less than 10000 nM in the assay with bromodomain.
With `Cc1noc(C)c1-c1cnc2c(-c3cccc(C(=O)O)c3)cn(CC3CCC(F)(F)CC3)c2c1` [P-0393, 3-[1-[(4,4-difluorocyclohexyl)methyl]-6-(3,5-dimethylisoxazol-4-yl)pyrrolo[3,2-b]pyridin-3-yl]benzoic acid], the figures for the IC50 on BRD4-BD12 (1-477), with MV-4-11 cells and in the assay with bromodomain were less than 1 µM, less than 1 µM and less than 10000 nM, respectively.
For the compound `Cc1noc(C)c1-c1cnc2c(-c3cnn(C)c3C)cn(CC3CCC(F)(F)CC3)c2c1` [P-0394, 4-[1-[(4,4-difluorocyclohexyl)methyl]-3-(1,5-dimethylpyrazol-4-yl)pyrrolo[3,2-b]pyridin-6-yl]-3,5-dimethyl-isoxazole], the IC50 at BRD4-BD12 (1-477) was less than 1 µM; in the assay on MV-4-11 cells, less than 1 µM; in the assay with bromodomain it was less than 10000 nM.
Consider `Cc1nn(C)cc1-c1cn(CC2CCC(F)(F)CC2)c2cc(-c3c(C)noc3C)cnc12` [P-0395, 4-[1-[(4,4-difluorocyclohexyl)methyl]-3-(1,3-dimethylpyrazol-4-yl)pyrrolo[3,2-b]pyridin-6-yl]-3,5-dimethyl-isoxazole], for which the IC50 at BRD4-BD12 (1-477) was less than 1 µM; in the assay on MV-4-11 cells, less than 1 µM; in the assay on bromodomain, less than 10000 nM.
For `Cc1noc(C)c1-c1cnc2c(-c3cnc(N)nc3)cn(CC3CCC(F)(F)CC3)c2c1` [P-0396, 5-[1-[(4,4-difluorocyclohexyl)methyl]-6-(3,5-dimethylisoxazol-4-yl)pyrrolo[3,2-b]pyridin-3-yl]pyrimidin-2-amine], the IC50 on BRD4-BD12 (1-477) is less than 1 µM; in the assay on MV-4-11 cells, less than 1 µM; with bromodomain, less than 10000 nM.
As to `Cc1ccc(-c2cn(CC3CCC(F)(F)CC3)c3cc(-c4c(C)noc4C)cnc23)cn1` [P-0397, 4-[1-[(4,4-difluorocyclohexyl)methyl]-3-(6-methyl-3-pyridyl)pyrrolo[3,2-b]pyridin-6-yl]-3,5-dimethyl-isoxazole], the IC50 on BRD4-BD12 (1-477) is less than 1 µM; in the assay with MV-4-11 cells it was less than 1 µM; in the assay on bromodomain it was less than 10000 nM.
As to `Cc1noc(C)c1-c1cnc2c(-c3cnc(N)cn3)cn(CC3CCC(F)(F)CC3)c2c1` [P-0399, 5-[1-[(4,4-difluorocyclohexyl)methyl]-6-(3,5-dimethylisoxazol-4-yl)pyrrolo[3,2-b]pyridin-3-yl]pyrazin-2-amine], the IC50 on BRD4-BD12 (1-477) was less than 1 µM; with MV-4-11 cells it was less than 1 µM; in the assay with bromodomain, less than 10000 nM.
Consider `Cc1noc(C)c1-c1cnc2c(-c3cnco3)cn(CC3CCC(F)(F)CC3)c2c1` [P-0400, 4-[1-[(4,4-difluorocyclohexyl)methyl]-3-oxazol-5-yl-pyrrolo[3,2-b]pyridin-6-yl]-3,5-dimethyl-isoxazole], for which the half-inhibitory concentration (IC50) is less than 1 µM at BRD4-BD12 (1-477), less than 1 µM with MV-4-11 cells and less than 10000 nM in the assay with bromodomain.
Turning to `Cc1noc(C)c1-c1cnc2c(-c3ccc(N)nc3)cn(CC3CCC(F)(F)CC3)c2c1` [P-0401, 5-[1-[(4,4-difluorocyclohexyl)methyl]-6-(3,5-dimethylisoxazol-4-yl)pyrrolo[3,2-b]pyridin-3-yl]pyridin-2-amine], the 50% inhibitory concentration (IC50) is less than 1 µM at BRD4-BD12 (1-477), less than 1 µM with MV-4-11 cells and less than 10000 nM in the assay with bromodomain.
For the compound `Cc1noc(C)c1-c1cnc2c(-c3ccc(O)nc3)cn(CC3CCC(F)(F)CC3)c2c1` [P-0402, 5-[1-[(4,4-difluorocyclohexyl)methyl]-6-(3,5-dimethylisoxazol-4-yl)pyrrolo[3,2-b]pyridin-3-yl]pyridin-2-ol], the half-maximal inhibitory concentration (IC50) on BRD4-BD12 (1-477) is less than 1 µM; in the assay with MV-4-11 cells it was less than 1 µM; in the assay on bromodomain, less than 10000 nM.
With `CNC(=O)c1ccc(-c2cn(CC3CCC(F)(F)CC3)c3cc(-c4c(C)noc4C)cnc23)cc1` [P-0403, 4-[1-[(4,4-difluorocyclohexyl)methyl]-6-(3,5-dimethylisoxazol-4-yl)pyrrolo[3,2-b]pyridin-3-yl]-N-methyl-benzamide], the IC50 on BRD4-BD12 (1-477) was less than 1 µM; in the assay with MV-4-11 cells, less than 1 µM; in the assay on bromodomain, less than 10000 nM.
Turning to `COc1cc(-c2cn(CC3CCC(F)(F)CC3)c3cc(-c4c(C)noc4C)cnc23)ccc1C(=O)O` [P-0404, 4-[1-[(4,4-difluorocyclohexyl)methyl]-6-(3,5-dimethylisoxazol-4-yl)pyrrolo[3,2-b]pyridin-3-yl]-2-methoxy-benzoic acid], the IC50 on BRD4-BD12 (1-477) is less than 1 µM; in the assay on MV-4-11 cells, less than 1 µM; in the assay on bromodomain it was less than 10000 nM.
As to `Cc1noc(C)c1-c1cnc2c(-c3cnc(C4CC4)nc3)cn(CC3CCC(F)(F)CC3)c2c1` [P-0405, 4-[3-(2-cyclopropylpyrimidin-5-yl)-1-[(4,4-difluorocyclohexyl)methyl]pyrrolo[3,2-b]pyridin-6-yl]-3,5-dimethyl-isoxazole], the IC50 on BRD4-BD12 (1-477) was less than 1 µM; with MV-4-11 cells it was less than 1 µM; in the assay with bromodomain, less than 10000 nM.
Take `Cc1noc(C)c1-c1cnc2c(-c3ccc(C(=O)O)c(F)c3)cn(CC3CCC(F)(F)CC3)c2c1` [P-0406, 4-[1-[(4,4-difluorocyclohexyl)methyl]-6-(3,5-dimethylisoxazol-4-yl)pyrrolo[3,2-b]pyridin-3-yl]-2-fluoro-benzoic acid]: the results for the IC50 at BRD4-BD12 (1-477), in the assay with MV-4-11 cells and with bromodomain were less than 1 µM, less than 1 µM and less than 10000 nM, respectively.
With `Cc1noc(C)c1-c1cnc2c(-c3ccnc(C4CC4)c3)cn(CC3CCC(F)(F)CC3)c2c1` [P-0407, 4-[3-(2-cyclopropyl-4-pyridyl)-1-[(4,4-difluorocyclohexyl)methyl]pyrrolo[3,2-b]pyridin-6-yl]-3,5-dimethyl-isoxazole], the half-maximal inhibitory concentration (IC50) at BRD4-BD12 (1-477) was less than 1 µM; with MV-4-11 cells, less than 1 µM; with bromodomain it was less than 10000 nM.
As for `Cc1noc(C)c1-c1cnc2c(-c3ccc(=O)n(C)c3)cn(CC3CCC(F)(F)CC3)c2c1` [P-0408, 5-[1-[(4,4-difluorocyclohexyl)methyl]-6-(3,5-dimethylisoxazol-4-yl)pyrrolo[3,2-b]pyridin-3-yl]-1-methyl-pyridin-2-one], the results for the IC50 on BRD4-BD12 (1-477), in the assay with MV-4-11 cells and in the assay on bromodomain were less than 1 µM, less than 1 µM and less than 10000 nM, respectively.
As to `CCn1cc(-c2cn(CC3CCC(F)(F)CC3)c3cc(-c4c(C)noc4C)cnc23)cn1` [P-0409, 4-[1-[(4,4-difluorocyclohexyl)methyl]-3-(1-ethylpyrazol-4-yl)pyrrolo[3,2-b]pyridin-6-yl]-3,5-dimethyl-isoxazole], the values for the IC50 at BRD4-BD12 (1-477), with MV-4-11 cells and with bromodomain were less than 1 µM, less than 1 µM and less than 10000 nM, respectively.
For the compound `Cc1noc(C)c1-c1cnc2c(-c3cn(C)nc3C(F)(F)F)cn(CC3CCC(F)(F)CC3)c2c1` [P-0410, 4-[1-[(4,4-difluorocyclohexyl)methyl]-3-[1-methyl-3-(trifluoromethyl)pyrazol-4-yl]pyrrolo[3,2-b]pyridin-6-yl]-3,5-dimethyl-isoxazole], the IC50 was less than 1 µM on BRD4-BD12 (1-477), less than 1 µM with MV-4-11 cells and less than 10000 nM in the assay with bromodomain.
As to `Cc1noc(C)c1-c1cnc2c(-c3cccc(CC(=O)O)c3)cn(CC3CCC(F)(F)CC3)c2c1` [P-0411, 2-[3-[1-[(4,4-difluorocyclohexyl)methyl]-6-(3,5-dimethylisoxazol-4-yl)pyrrolo[3,2-b]pyridin-3-yl]phenyl]acetic acid], the IC50 is less than 1 µM at BRD4-BD12 (1-477), less than 1 µM in the assay with MV-4-11 cells and less than 10000 nM with bromodomain.
